Results reported in patent publication US5391540A, “Substituted pyridine compounds” (Rohm and Haas Company, priority 1993, dated 1995).

Columns and labels:
Assay type in all cases: in vivo
[1] = tested on: Morningglory; assay: Pre-emergent herbicidal activity (Table A); details: Ipomoea, pre-emergence, Mogl, 11.2 kg/ha, 10-14 days, read-out: herbicidal rating (% inhibition)
Method in brief: (§1)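 Seeds or perennial propagules set on compacted topsoil, then covered with soil mixed with a known amount of test compound applied in acetone or water carrier. Ratings assigned on a scale based on percent inhibition of each species.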

[2] = tested on: Barnyardgrass; assay: Pre-emergent herbicidal activity (Table A); details: Echinochloa crus-galli, pre-emergence, Bygr, 11.2 kg/ha, 10-14 days, read-out: herbicidal rating (% inhibition)
Method in brief: as §1

[3] = tested on: Cocklebur; assay: Pre-emergent herbicidal activity (Table A); details: Xanthium strumarium, pre-emergence, Cobu, 11.2 kg/ha, 10-14 days, read-out: herbicidal rating (% inhibition)
Method in brief: as §1

[4] = tested on: Downy Brome; assay: Pre-emergent herbicidal activity (Table A); details: Bromus tectorum, pre-emergence, Dobr, 11.2 kg/ha, 10-14 days, read-out: herbicidal rating (% inhibition)
Method in brief: as §1

[5] = tested on: Yellow Nutsedge; assay: Pre-emergent herbicidal activity (Table A); details: Cyperus, pre-emergence, Yens, 11.2 kg/ha, 10-14 days, read-out: herbicidal rating (% inhibition)
Method in brief: as §1

[6] = tested on: Velvetleaf; assay: Pre-emergent herbicidal activity (Table A); details: Abutilon theophrasti, pre-emergence, Vele, 11.2 kg/ha, 10-14 days, read-out: herbicidal rating (% inhibition)
Method in brief: as §1

[7] = tested on: Bygr; assay: plant injury after spraying emerged plants (Table D); parameters: scale not given here
From the text: (§2) Topsoil (silt loam) is sieved through a screen having 1.27 cm openings. […] This mixture is steam sterilized and then placed in aluminum pans 6.985 cm deep having ten holes in the bottom each 0.635 cm in diameter. The soil mixture is compacted to a depth of 1.27 cm. from the top of the pan. A predetermined number of seeds of each of several dicotyledonous and monocotyledonous annual plant species and/or vegetative propagules for the perennial plant species are placed on the soil and pressed into the soil surface. The seeds and/or vegetative propagules are covered with 1.27 cm of a mixture of 50% topsoil and 50% of a mixture of Canadian sphagnum peat moss, vermiculite and a wetting agent. The pans are then placed on a capillary mat on a greenhouse bench and subirrigated as needed.
(§3) In the following Table D the legends used to identify the plant species are the same as those used in the preceding Table B.

[8] = tested on: Rice; assay: as above; parameters: scale not given here
From the text: as §2, §3

[9] = tested on: Mogl; assay: as above; parameters: scale not given here
From the text: as §2, §3

[10] = tested on: Whez; assay: as above; parameters: scale not given here
From the text: as §2, §3

[11] = tested on: Lacg; assay: as above; parameters: scale not given here
From the text: as §2, §3

[12] = tested on: Sobe; assay: as above; parameters: scale not given here
From the text: as §2, §3

[13] = tested on: Grft; assay: as above; parameters: scale not given here
From the text: as §2, §3

[14] = tested on: Prmi; assay: as above; parameters: scale not given here
From the text: as §2, §3

[15] = tested on: Cobu; assay: as above; parameters: scale not given here
From the text: as §2, §3

[16] = tested on: Grso; assay: as above; parameters: scale not given here
From the text: as §2, §3

[17] = tested on: Corn; assay: as above; parameters: scale not given here
From the text: as §2, §3

COC(=O)c1c(OC)nc(C(F)(F)F)c(C2=NCCCS2)c1CC(C)C [Compound 98, 3-pyridinecarboxylic acid, 5-(5,6-dihydro-4H-1,3-thiazin-2-yl)-2-methoxy-4-(2-methylpropyl)-6-(trifluoromethyl)-, methyl ester]
inhibition at 11200 g/ha [1]: 75 to 100% | inhibition at 11200 g/ha [2]: 75 to 100% | inhibition at 11200 g/ha [3]: 0 to 24% | inhibition at 11200 g/ha [4]: 75 to 100% | inhibition at 11200 g/ha [5]: 0 to 24% | inhibition at 11200 g/ha [6]: 75 to 100% | plant injury rating, Bygr ([7]; 0.0701 kg/ha): 0 | plant injury rating, Bygr ([7]; 0.2803 kg/ha): 0 | plant injury rating, Bygr ([7]; 1.1210 kg/ha): 0 | plant injury rating, Bygr ([7]; 5.6050 kg/ha): 0 | plant injury rating, Rice ([8]; 0.0701 kg/ha): 0 | plant injury rating, Rice ([8]; 0.2803 kg/ha): 0 | plant injury rating, Rice ([8]; 1.1210 kg/ha): 0 | plant injury rating, Rice ([8]; 5.6050 kg/ha): 0 | plant injury rating, Mogl ([9]; 0.0701 kg/ha): 0 | plant injury rating, Mogl ([9]; 0.2803 kg/ha): 0 | plant injury rating, Mogl ([9]; 1.1210 kg/ha): 1 | plant injury rating, Mogl ([9]; 5.6050 kg/ha): 2 | plant injury rating, Whez ([10]; 0.0701 kg/ha): 0 | plant injury rating, Whez ([10]; 0.2803 kg/ha): 0 | plant injury rating, Whez ([10]; 1.1210 kg/ha): 0 | plant injury rating, Whez ([10]; 5.6050 kg/ha): 0 | plant injury rating, Lacg ([11]; 0.0701 kg/ha): 0 | plant injury rating, Lacg ([11]; 0.2803 kg/ha): 2 | plant injury rating, Lacg ([11]; 1.1210 kg/ha): 3 | plant injury rating, Lacg ([11]; 5.6050 kg/ha): 3 | plant injury rating, Sobe ([12]; 0.0701 kg/ha): 0 | plant injury rating, Sobe ([12]; 0.2803 kg/ha): 0 | plant injury rating, Sobe ([12]; 1.1210 kg/ha): 0 | plant injury rating, Sobe ([12]; 5.6050 kg/ha): 2 | plant injury rating, Grft ([13]; 0.0701 kg/ha): 0 | plant injury rating, Grft ([13]; 0.2803 kg/ha): 0 | plant injury rating, Grft ([13]; 1.1210 kg/ha): 0 | plant injury rating, Grft ([13]; 5.6050 kg/ha): 1 | plant injury rating, Prmi ([14]; 0.0701 kg/ha): 0 | plant injury rating, Prmi ([14]; 0.2803 kg/ha): 1 | plant injury rating, Prmi ([14]; 5.6050 kg/ha): 2 | plant injury rating, Cobu ([15]; 0.0701 kg/ha): 0 | plant injury rating, Cobu ([15]; 0.2803 kg/ha): 1 | plant injury rating, Cobu ([15]; 1.1210 kg/ha): 1 | plant injury rating, Cobu ([15]; 5.6050 kg/ha): 2 | plant injury rating, Grso ([16]; 0.0701 kg/ha): 0 | plant injury rating, Grso ([16]; 0.2803 kg/ha): 0 | plant injury rating, Grso ([16]; 1.1210 kg/ha): 0 | plant injury rating, Grso ([16]; 5.6050 kg/ha): 1 | plant injury rating, Corn ([17]; 0.0701 kg/ha): 0 | plant injury rating, Corn ([17]; 0.2803 kg/ha): 0 | plant injury rating, Corn ([17]; 1.1210 kg/ha): 0 | plant injury rating, Corn ([17]; 5.6050 kg/ha): 2
